Measured values as given in patent publication US8729113B2 (Hoffmann-La Roche Inc., priority 2008, dated 2014).

Biological target: TAAR1 (Mus musculus (Mouse), UniProt Q923Y8)
Experiment: Radioligand binding assay on TAAR1 (membranes of stably transfected HEK293 cells)
Settings: competition with [3H]-rac-2-(1,2,3,4-tetrahydro-1-naphthyl)-2-imidazoline, 4° C., 30 min
Description: For the construction of expression plasmids the coding sequences of human, rat and mouse TAAR 1 were amplified from genomic DNA essentially as described by Lindemann et al.. The Expand High Fidelity PCR System (Roche Diagnostics) was used with 1.5 mM Mg^2+ and purified PCR products were cloned into pCR2.1—TOPO cloning vector (Invitrogen) following the instructions of the manufacturer. PCR products were subcloned into the pIRESneo2 vector (BD Clontech, Palo Alto, Calif.), and expression vectors were sequence verified before introduction in cell lines.
HEK293 cells (ATCC # CRL-1573) were cultured essentially as described Lindemann et al. (2005). For the generation of stably transfected cell lines HEK293 cells were transfected with the pIRESneo2 expression plasmids containing the TAAR coding sequences (described above) with Lipofectamine 2000 (Invitrogen) according to the instructions of the manufacturer, and 24 hrs post transfection the culture medium was supplemented with 1 mg/ml G418 (Sigma, Buchs, Switzerland). After a culture period of about 10 d clones were isolated, expanded and tested for responsiveness to trace amines (all compounds purchased from Sigma) with the cAMP Biotrak Enzyme immunoassay (EIA) System (Amersham) following the non-acetylation EIA procedure provided by the manufacturer. […] Membrane Preparation and Radioligand Binding
Cells at confluence were rinsed with ice-cold phosphate buffered saline without Ca^2+ and Mg^2+ containing 10 mM EDTA and pelleted by centrifugation at 1000 rpm for 5 min at 4° C. The pellet was then washed twice with ice-cold phosphate buffered saline and cell pellet was frozen immediately by immersion in liquid nitrogen and stored until use at −80° C. Cell pellet was then suspended in 20 ml HEPES-NaOH (20 mM), pH 7.4 containing 10 mM EDTA, and homogenized with a Polytron (PT 3000, Kinematica) at 10,000 rpm for 10 s. The homogenate was centrifuged at 48,000×g for 30 min at 4° C. and the pellet resuspended in 20 ml HEPES-NaOH (20 mM), pH 7.4 containing 0.1 mM EDTA (buffer A), and homogenized with a Polytron at 10,000 rpm for 10 s. The homogenate was then centrifuged at 48,000×g for 30 min at 4° C. and the pellet resuspended in 20 ml buffer A, and homogenized with a Polytron at 10,000 rpm for 10 s. Protein concentration was determined by the method of Pierce (Rockford, Ill.). The homogenate was then centrifuged at 48,000×g for 10 min at 4° C., resuspended in HEPES-NaOH (20 mM), pH 7.0 including MgCl2 (10 mM) and […] homogenized with a Polytron at 10,000 rpm for 10 s.
Binding assay was performed at 4° C. in a final volume of 1 ml, and with an incubation time of 30 min. The radioligand [^3H]-rac-2-(1,2,3,4-tetrahydro-1-naphthyl)-2-imidazoline was used at a concentration equal to the calculated Kd value of 60 nM to give a bound at around 0.1% of the total added radioligand concentration, and a specific binding which represented approximately 70-80% of the total binding. Non-specific binding was defined as the amount of [^3H]-rac-2-(1,2,3,4-tetrahydro-1-naphthyl)-2-imidazoline bound in the presence of the appropriate unlabelled ligand (10 μM). Competing ligands were tested in a wide range of concentrations […]. […] Each experiment was performed in duplicate. All incubations were terminated by rapid filtration through UniFilter-96 plates (Packard Instrument Company) and glass filter GF/C, pre-soaked for at least 2 h in polyethylenimine 0.3%, and using a Filtermate 96 Cell Harvester (Packard Instrument Company). The tubes and filters were then washed 3 times with 1 ml aliquots of cold buffer B. Filters were not dried and soaked in Ultima gold (45 μl/well, Packard Instrument Company) and bound radioactivity was counted by a TopCount Microplate Scintillation Counter (Packard Instrument Company).

TAAR1, sequence (Q923Y8 whole entry): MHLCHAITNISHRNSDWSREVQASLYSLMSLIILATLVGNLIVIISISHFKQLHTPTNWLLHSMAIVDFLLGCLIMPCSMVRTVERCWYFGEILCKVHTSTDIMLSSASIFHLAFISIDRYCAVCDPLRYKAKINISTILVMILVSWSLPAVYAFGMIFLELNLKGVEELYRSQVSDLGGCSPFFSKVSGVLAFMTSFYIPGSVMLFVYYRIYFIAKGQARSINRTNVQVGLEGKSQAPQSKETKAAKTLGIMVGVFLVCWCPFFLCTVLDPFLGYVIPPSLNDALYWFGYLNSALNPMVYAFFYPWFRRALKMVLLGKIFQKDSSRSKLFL

Row | Structure (SMILES) | Ki [µM]
1 | N#Cc1cccc(OCC[C@H]2COC(N)=N2)c1 [Example 63, 3-[2-((S)-2-Amino-4,5-dihydro-oxazol-4-yl)-ethoxy]-benzonitrile] | 0.001
2 | CCC(CC[C@H]1COC(N)=N1)c1ccc(Cl)cc1 (stereo partly drawn) [Example 27, (4S)-4-[3-(4-Chloro-phenyl)-pentyl]-4,5-dihydro-oxazol-2-ylamine] | 0.0017
3 | CC[C@@H](C[C@H]1COC(N)=N1)Oc1cccc(Cl)c1 [Example 112] | 0.0012
4 | C[C@@H](CC[C@H]1COC(N)=N1)c1ccc(F)cc1 [Example 115, (S)-4-[(S)-3-(4-Fluoro-phenyl)-butyl]-4,5-dihydro-oxazol-2-ylamine] | 0.0031
5 | NC1=N[C@@H](CCOc2ccccc2Cl)CO1 [Example 6, (S)-4-[2-(2-Chloro-phenoxy)-ethyl]-4,5-dihydro-oxazol-2-ylamine] | 0.0041
6 | CCC(CC[C@H]1COC(N)=N1)c1ccc(F)cc1 (stereo partly drawn) [Example 18, (4S)-4-[3-(4-Fluoro-phenyl)-pentyl]-4,5-dihydro-oxazol-2-ylamine] | 0.0026
7 | C[C@@H](C[C@H]1COC(N)=N1)Oc1ccc(Cl)c(Cl)c1 [Example 75, (S)-4-[(S)-2-(3,4-Dichloro-phenoxy)-propyl]-4,5-dihydro-oxazol-2-ylamine] | 0.001
8 | NC1=N[C@@H](CCOc2cccc(C(F)(F)F)c2)CO1 [Example 4, (S)-4-[2-(3-Trifluoromethyl-phenoxy)-ethyl]-4,5-dihydro-oxazol-2-ylamine] | 0.0009
9 | NC1=N[C@@H](CCOc2cccc(C(=O)OCc3ccccc3)c2)CO1 [Example 136, 3-[2-((S)-2-Amino-4,5-dihydro-oxazol-4-yl)-ethoxy]-benzoic acid benzyl ester] | 0.0004
10 | NC1=N[C@@H](CCOc2cccc(Cl)c2)CO1 [Example 5, (S)-4-[2-(3-Chloro-phenoxy)-ethyl]-4,5-dihydro-oxazol-2-ylamine] | 0.0003
11 | C[C@@H](C[C@H]1COC(N)=N1)Oc1ccc(Cl)cc1F [Example 73, (S)-4-[(S)-2-(4-Chloro-2-fluoro-phenoxy)-propyl]-4,5-dihydro-oxazol-2-ylamine] | 0.0021
12 | C[C@@H](C[C@H]1COC(N)=N1)Oc1ccc(F)c(F)c1 [Example 69, (S)-4-[(S)-2-(3,4-Difluoro-phenoxy)-propyl]-4,5-dihydro-oxazol-2-ylamine] | 0.008
13 | NC1=N[C@@H](CCOc2cccc(-c3ccccc3)c2)CO1 [Example 33, (S)-4-[2-(Biphenyl-3-yloxy)-ethyl]-4,5-dihydro-oxazol-2-ylamine] | 0.0018
14 | NC1=N[C@@H](CCOc2ccc(F)c(Cl)c2)CO1 [Example 8, (S)-4-[2-(3-Chloro-4-fluoro-phenoxy)-ethyl]-4,5-dihydro-oxazol-2-ylamine] | 0.0002
15 | CC(C)(CC[C@H]1COC(N)=N1)c1ccc(Cl)cc1 [Example 26, (S)-4-[3-(4-Chloro-phenyl)-3-methyl-butyl]-4,5-dihydro-oxazol-2-ylamine] | 0.0007
16 | C[C@@H](C[C@H]1COC(N)=N1)Oc1ccc(F)cc1 [Example 64] | 0.0076
17 | C[C@H](C[C@H]1COC(N)=N1)Oc1ccc(F)c(Cl)c1 [Example 85, (S)-4-[(R)-2-(3-Chloro-4-fluoro-phenoxy)-propyl]-4,5-dihydro-oxazol-2-ylamine] | 0.0059
18 | NC1=N[C@@H](CCOc2ccc(F)c(F)c2)CO1 [Example 9, (S)-4-[2-(3,4-Difluoro-phenoxy)-ethyl]-4,5-dihydro-oxazol-2-ylamine] | 0.0012

Further lines, results first:

Row | Ki [µM] | Structure (SMILES)
19 | 0.0012 | C[C@@H](C[C@H]1COC(N)=N1)Oc1cccc(Cl)c1 [Example 68, (S)-4-[(S)-2-(3-Chloro-phenoxy)-propyl]-4,5-dihydro-oxazol-2-ylamine]
20 | 0.0016 | NC1=N[C@@H](CCOc2ccc(-c3ccc(F)cc3)cc2)CO1 [Example 48, (S)-4-[2-(4′-Fluoro-biphenyl-4-yloxy)-ethyl]-4,5-dihydro-oxazol-2-ylamine]
21 | 0.0013 | NC1=N[C@@H](CCC2(c3cc(F)cc(F)c3)CC2)CO1 [Example 142, (S)-4-{2-[1-(3,5-Difluoro-phenyl)-cyclopropyl]-ethyl}-4,5-dihydro-oxazol-2-ylamine]
22 | 0.0016 | CC[C@@H](C[C@H]1COC(N)=N1)Oc1ccccc1 [Example 109, (S)-4-((S)-2-Phenoxy-butyl)-4,5-dihydro-oxazol-2-ylamine]
23 | 0.0015 | NC1=N[C@@H](CCCCc2ccccc2)CO1 [Example 172, (S)-4-(4-Phenyl-butyl)-4,5-dihydro-oxazol-2-ylamine]
24 | 0.0025 | NC1=N[C@@H](CCOc2ccc(Br)cc2)CO1 [Example 55, (S)-4-[2-(4-Bromo-phenoxy)-ethyl]-4,5-dihydro-oxazol-2-ylamine]
25 | 0.0048 | NC1=N[C@@H](CCOc2ccc(Cc3ccccc3)cc2)CO1 [Example 47, (S)-4-[2-(4-Benzyl-phenoxy)-ethyl]-4,5-dihydro-oxazol-2-ylamine]
26 | 0.0063 | CC[C@@H](C[C@H]1COC(N)=N1)Oc1ccc2ncccc2c1 [Example 159, (S)-4-[(S)-2-(Quinolin-6-yloxy)-butyl]-4,5-dihydro-oxazol-2-ylamine]
27 | 0.008 | CC(CCc1ccccc1)[C@H]1COC(N)=N1 (stereo partly drawn) [Example 90, (4S)-4-(1-Methyl-3-phenyl-propyl)-4,5-dihydro-oxazol-2-ylamine]
28 | 0.0059 | NC1=N[C@@H](CCC2(c3ccc(F)cc3F)CC2)CO1 [Example 89, (S)-4-{2-[1-(2,4-Difluoro-phenyl)-cyclopropyl]-ethyl}-4,5-dihydro-oxazol-2-ylamine]
29 | 0.0005 | NC1=N[C@@H](CCC2(c3ccc(Br)cc3)CC2)CO1 [Example 144, (S)-4-{2-[1-(4-Bromo-phenyl)-cyclopropyl]-ethyl}-4,5-dihydro-oxazol-2-ylamine]
30 | 0.0008 | NC1=N[C@@H](CCOc2cccc(OCc3ccccc3)c2)CO1 [Example 34, (S)-4-[2-(3-Benzyloxy-phenoxy)-ethyl]-4,5-dihydro-oxazol-2-ylamine]
31 | 0.0073 | CC[C@H](OC[C@H]1COC(N)=N1)c1ccccc1 [Example 156, (S)-4-((S)-1-Phenyl-propoxymethyl)-4,5-dihydro-oxazol-2-ylamine]
32 | 0.0009 | CC[C@@H](C[C@H]1COC(N)=N1)Oc1cccc(OCc2ccccc2)c1 [Example 140, (S)-4-[(S)-2-(3-Benzyloxy-phenoxy)-butyl]-4,5-dihydro-oxazol-2-ylamine]
33 | 0.0022 | NC1=N[C@@H](CCC(F)(F)c2ccc(F)cc2)CO1 [Example 162, (S)-4-[3,3-Difluoro-3-(4-fluoro-phenyl)-propyl]-4,5-dihydro-oxazol-2-ylamine]
34 | 0.0005 | NC1=N[C@@H](CCOc2ccc(Cl)cc2)CO1 [Example 3, (S)-4-[2-(4-Chloro-phenoxy)-ethyl]-4,5-dihydro-oxazol-2-ylamine]
35 | 0.008 | COC(=O)c1cccc(OCC[C@H]2COC(N)=N2)c1 [Example 127, 3-[2-((S)-2-Amino-4,5-dihydro-oxazol-4-yl)-ethoxy]-benzoic acid methyl ester]
36 | 0.0007 | CC[C@@H](C[C@H]1COC(N)=N1)Oc1ccc(Cl)c(Cl)c1 [Example 122, (S)-4-[(S)-2-(3,4-Dichloro-phenoxy)-butyl]-4,5-dihydro-oxazol-2-ylamine]
37 | 0.0024 | C[C@@H](C[C@H]1COC(N)=N1)Oc1ccc(F)c(Cl)c1 [Example 72, (S)-4-[(S)-2-(3-Chloro-4-fluoro-phenoxy)-propyl]-4,5-dihydro-oxazol-2-ylamine]
38 | 0.0028 | NC1=N[C@@H](CCOc2ccc(F)cc2)CO1 [Example 2, (S)-4-[2-(4-Fluoro-phenoxy)-ethyl]-4,5-dihydro-oxazol-2-ylamine]
